Results taken from patent US12595357B2, “Black knot melanin—a super-additive with UV absorbing and antioxidant properties” (The University of Akron, priority 2021, dated 2026).

Assay: DPPH assay for antioxidant activity (radical scavenging)
Assay type: biochemical
Conditions: 0.1 mM DPPH solution, absorbance at 517 nm; masses greater than or equal to 40 μg
Method: 2,2-diphenyl-1-(2,4,6-trinitrophenyl) hydrazyl (DPPH) radical scavenging activity of BKF melanin was measured according to the procedure described in the literature. […] Afterwards, the UV-vis absorbance spectra were collected to monitor the decrease in the absorbance at 517 nm due to quenching of DPPH radical by the BKF melanin. Similar volumes of BKF melanin solution were added to pure ethanol (instead of 0.1 mM DPPH solution) to measure the absorbance of BKF melanin itself. Afterwards, the scavenging activity (or antioxidant activity) [I] was calculated using Equation 1, where Ac is the absorbance of DPPH solution without any BKF melanin, Ai is the absorbance of DPPH solution mixed with varying amounts of BKF melanin, and Aj is the absorbance of BKF melanin itself without DPPH solution. […]
The antioxidant activity of BKF melanin was investigated using the DPPH assay described above. The scavenging activity was determined by monitoring the decrease in absorbance of DPPH at 517 nm, since the DPPH is reduced through an electron transfer from the antioxidant material. […] As the ascorbic acid concentration increases from 0 to 60 μg, the absorbance at 517 nm decreases along with visual change in color from purple to yellow. The antioxidant activity (%) calculated using Equation 1 is plotted as a function of ascorbic acid mass in FIG. 3B. […]

O=C1O[C@H]([C@@H](O)CO)C(O)=C1O [ascorbic acid]
antioxidant activity (%), saturated value: ~90%
